In general, EC50 refers to the concentration giving half of the maximal effect. The Emax is the maximal effect, on the per cent scale that the assay sets.

The source made the active and inactive calls. The rule behind the calls is not given here.

Activity, EC50 and Emax data for 10 compounds are collected here from ChEMBL document CHEMBL1156046, “Amiodarone and its putative metabolites fail to activate wild type hTAAR1” (Bioorg Med Chem Lett, 2009).

Experiment [1] deals with T1, Trace amine-associated receptor 1 (Homo sapiens) (UniProt Q96RJ0).
T1 sequence (whole entry): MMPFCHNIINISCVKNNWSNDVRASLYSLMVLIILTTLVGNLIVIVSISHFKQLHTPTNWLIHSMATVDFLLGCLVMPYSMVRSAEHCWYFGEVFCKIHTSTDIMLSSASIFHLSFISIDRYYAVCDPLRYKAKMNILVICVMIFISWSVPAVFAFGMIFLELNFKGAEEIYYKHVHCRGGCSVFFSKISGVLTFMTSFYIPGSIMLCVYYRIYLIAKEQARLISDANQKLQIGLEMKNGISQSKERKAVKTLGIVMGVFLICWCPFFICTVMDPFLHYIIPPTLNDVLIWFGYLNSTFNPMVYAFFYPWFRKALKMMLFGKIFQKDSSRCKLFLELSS
The experiment in a line: Activation of human TAAR1 expressed in CHOK1 cells assessed as cAMP accumulation at 10 uM relative to beta-phenethylamine. The experiment is classed as functional, cell-based. The conditions noted are these: CHO-K1. A general note: Cyclic AMP is a second messenger, typically raised through Gs and lowered through Gi signalling.

Experiment [2] deals with T1, Trace amine-associated receptor 1 (Homo sapiens). As to the kind of experiment: Activation of human TAAR1 expressed in CHOK1 cells assessed as cAMP accumulation at 0.1 to 1 uM. Type of experiment: functional, cell-based. The conditions noted are these: CHO-K1.
The target is the same in experiment [3]. As to the kind of experiment: Activation of human TAAR1 expressed in CHOK1 cells coexpressing Galpha16 assessed as calcium accumulation at 0.1 to 1 uM relative to beta-phenethylamine. Type of experiment: functional, cell-based. The conditions noted are these: CHO-K1.
Experiment [4] has as its system CHO. The experiment in a line: Effect on calcium mobilization in CHO cells stably expressing Galpha16 at 10 uM relative to beta-phenethylamine. Type of experiment: functional, Cricetulus griseus.
Experiment [5] has as its system CHO. The experiment in a line: Effect on calcium mobilization in CHO cells stably expressing Galpha16. Type of experiment: functional, cell-based. The conditions noted are these: Cricetulus griseus.
Experiment [6] has as its target T2, Trace amine-associated receptor 1 (Homo sapiens, UniProt Q96RJ0).
T2 sequence (Q96RJ0 whole entry): T1 sequence (whole entry)
The experiment in a line: Activation of human TAAR1 expressed in CHOK1 cells coexpressing Galpha16 assessed as calcium accumulation. The experiment is classed as functional, cell-based, CHO-K1.

Experiment [7] deals with T1, Trace amine-associated receptor 1 (Homo sapiens). As to the kind of experiment: Activation of human TAAR1 expressed in CHOK1 cells coexpressing Galpha16 assessed as calcium accumulation relative to control. The experiment is classed as functional, cell-based. The conditions noted are these: CHO-K1.

Regarding `CCCCc1oc2ccccc2c1C(=O)c1ccc(OCCNCC)cc1`, the Activity in experiment [1] was below 5%. Moreover, the outcome in experiment [2] and in experiment [3] was inactive.
With `CCCCc1oc2ccccc2c1C(=O)c1cc(I)c(OCCNCC)c(I)c1` [DESETHYLAMIODARONE], the outcome in experiment [2] and in experiment [3] was inactive. In addition, the Activity in the experiment with CHO [4] is on record as 44%.
On to `CCCCc1oc2ccccc2c1C(=O)c1ccc(OCCN(CC)CC)cc1`, for which the result in experiment [2] and in experiment [3] was inactive.
On to `CCCCc1oc2ccccc2c1C(=O)c1cc(I)c(OCCN)c(I)c1`, for which the Activity in experiment [1] was below 5%. The result in experiment [2] and in experiment [3] was inactive.
In the case of `CCCCc1oc2ccccc2c1C(=O)c1ccc(OCCNCC)c(I)c1`, the outcome in experiment [2] and in experiment [3] was inactive.
`CCCCc1oc2ccccc2c1C(=O)c1ccc(OCCN)cc1`: the outcome in experiment [2] and in experiment [3] was inactive.
Regarding `CCCCc1oc2ccccc2c1C(=O)c1cc(I)c(OCCN(CC)CC)c(I)c1`, the result (in experiment [2]; in the experiment with CHO [5]) was inactive.
On to `CCCCc1oc2ccccc2c1C(=O)c1ccc(OCCN)c(I)c1`, for which, in experiment [1], the Activity was below 5%. Moreover, the outcome in experiment [2] and in experiment [3] was inactive.
With `CCCCc1oc2ccccc2c1C(=O)c1ccc(OCCN(CC)CC)c(I)c1`, the result in experiment [2] and in experiment [3] was inactive.
On to `NCCOc1ccccc1`, for which the concentration giving a half-maximal response (EC50) in experiment [6] was found to be 1790 nM. Also, the maximal response (Emax) in experiment [7] was 41%.
